# Several values for one entry are separate records, joined by “and”; a condition that tells them apart may be missing. Identical values can stand only once. Toxic doses and inconclusive results are not listed.
# Test system: P388 leukemia ip, CD2F1 mice, survival T/C
# Experiment: NCI In Vivo Anticancer Drug Screen. Data for tumor model P388 Leukemia (intraperitoneal) in CD2F1 (CDF1) mice
# Conditions: endpoint: median survival time, higher = longer survival
# Procedure, shortened: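 Mice carrying the transplanted tumor received test compound or vehicle. Survival was recorded in each group, and the value is the treated-group measurement divided by that of the vehicle-treated control group.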
# [1] = dose: 50.0 mg/kg/injection, schedule: Q01DX005 (ip), vehicle: saline
# [2] = dose: 50.0 mg/kg/injection, schedule: Q01DX009 (ip), vehicle: Klucel (hydroxypropylcellulose) (HPC)
# [3] = dose: 100.0 mg/kg/injection, schedule: Q01DX009 (ip), vehicle: Klucel (hydroxypropylcellulose) (HPC)
# [4] = dose: 60.0 mg/kg/injection, schedule: Q01DX005 (ip), vehicle: saline with Tween-80
# [5] = dose: 120.0 mg/kg/injection, schedule: Q01DX005 (ip), vehicle: saline with Tween-80
# [6] = dose: 240.0 mg/kg/injection, schedule: Q01DX005 (ip), vehicle: saline with Tween-80
# [7] = dose: 50.0 mg/kg/injection, schedule: Q01DX009 (ip), vehicle: saline
compound,measurement,setting,value
NS(=O)(=O)c1ccc(N=NC2C(=O)N(c3ccc(Cl)cc3)C(=S)N(c3ccc(Cl)cc3)C2=O)cc1,T/C,"dose: 12.5 mg/kg/injection, schedule: Q01DX005 (ip), vehicle: saline",100 % of control
same,T/C,"dose: 25.0 mg/kg/injection, schedule: Q01DX005 (ip), vehicle: saline",100 % of control
same,T/C,[1],108 % of control and 118 % of control
CC(C)CCN=Cc1ccccc1O.CC(C)CCN=Cc1ccccc1O.[Zn],T/C,[2],98 % of control
same,T/C,[3],104 % of control
CC(=O)CC(c1ccccc1)C(C(=O)O)c1ccccc1 (stereo not given),T/C,"dose: 100.0 mg/kg/injection, schedule: Q04DX003 (ip), vehicle: saline",93 % of control
same,T/C,"dose: 200.0 mg/kg/injection, schedule: Q04DX003 (ip), vehicle: saline",100 % of control
same,T/C,"dose: 400.0 mg/kg/injection, schedule: Q04DX003 (ip), vehicle: saline",100 % of control
O=[N+]([O-])c1cnccc1-n1nnc2ccccc21,T/C,[4],96 % of control
same,T/C,[5],96 % of control
same,T/C,[6],104 % of control
CCN(CC)CCCNc1c(OC)cc(C)c2sc3ccccc3c(=O)c12,T/C,[7],102 % of control
N#Cc1nc(CC(=O)c2ccccc2Cl)c(CC(=O)c2ccccc2Cl)nc1C#N,T/C,[4],100 % of control
same,T/C,[5],94 % of control
same,T/C,[6],114 % of control
NCC(O)c1cccc(C(F)(F)F)c1 (stereo not given),T/C,[7],92 % of control
same,T/C,"dose: 100.0 mg/kg/injection, schedule: Q01DX009 (ip), vehicle: saline",100 % of control
COCC12CCC(OC)C34C5CC6(O)C(OC)CC(OC(C)=O)(C5C6OC(=O)c5ccccc5)C(C(OC)C13)C4N(C)C2 (stereo not given),T/C,"dose: 0.31 mg/kg/injection, schedule: Q01DX009 (ip), vehicle: saline",106 % of control
same,T/C,"dose: 0.62 mg/kg/injection, schedule: Q01DX009 (ip), vehicle: saline",101 % of control
same,T/C,"dose: 1.25 mg/kg/injection, schedule: Q01DX009 (ip), vehicle: saline",110 % of control
same,T/C,"dose: 2.5 mg/kg/injection, schedule: Q01DX009 (ip), vehicle: saline",102 % of control
same,T/C,"dose: 5.0 mg/kg/injection, schedule: Q01DX009 (ip), vehicle: saline",108 % of control
CCCCCCCCCCCCC(O)CCC1CCCCN1 (stereo not given),T/C,[1],102 % of control
same,T/C,"dose: 100.0 mg/kg/injection, schedule: Q01DX005 (ip), vehicle: saline",105 % of control
CCOC(=O)C(C)(C)Oc1ccc(N=[N+]=[N-])cc1,T/C,[4],100 % of control
same,T/C,[5],104 % of control
same,T/C,[6],109 % of control
COC(=S)c1ccc(C(=S)OC)cc1,T/C,"dose: 50.0 mg/kg/injection, schedule: Q01DX009 (ip), vehicle: saline with Tween-80",99 % of control
same,T/C,"dose: 100.0 mg/kg/injection, schedule: Q01DX009 (ip), vehicle: saline with Tween-80",105 % of control
same,T/C,"dose: 200.0 mg/kg/injection, schedule: Q01DX009 (ip), vehicle: saline with Tween-80",103 % of control
NC(=O)C(=Nc1ccccc1)Nc1ccccc1,T/C,"dose: 100.0 mg/kg/injection, schedule: Q01DX001 (ip), vehicle: saline",115 % of control
same,T/C,"dose: 200.0 mg/kg/injection, schedule: Q01DX001 (ip), vehicle: saline",107 % of control
same,T/C,"dose: 400.0 mg/kg/injection, schedule: Q01DX001 (ip), vehicle: saline",104 % of control
Cc1cc(Cl)ccc1O/C(=C/C(=O)O)C(=O)O,T/C,"dose: 60.0 mg/kg/injection, schedule: Q01DX005 (ip), vehicle: Klucel (hydroxypropylcellulose) (HPC)",100 % of control and 98 % of control
same,T/C,"dose: 120.0 mg/kg/injection, schedule: Q01DX005 (ip), vehicle: Klucel (hydroxypropylcellulose) (HPC)",100 % of control and 95 % of control
same,T/C,"dose: 240.0 mg/kg/injection, schedule: Q01DX005 (ip), vehicle: Klucel (hydroxypropylcellulose) (HPC)",101 % of control and 87 % of control
O=[N+]([O-])c1ccc(/C=N/N2CCNC2=S)o1,T/C,"dose: 25.0 mg/kg/injection, schedule: Q01DX009 (ip), vehicle: Klucel (hydroxypropylcellulose) (HPC)",100 % of control
same,T/C,[2],101 % of control
same,T/C,[3],100 % of control
same,T/C,"dose: 200.0 mg/kg/injection, schedule: Q01DX009 (ip), vehicle: Klucel (hydroxypropylcellulose) (HPC)",100 % of control

# Reference: PubChem BioAssay AID330 (DTP/NCI, 2004)
